Reference: US20230340012A1, “NATURAL AND SYNTHETIC COMPOUNDS FOR TREATING CANCER AND OTHER DISEASES” (PACIFIC ARROW LIMITED, priority 2009, published 2023)
“And” between values parts separate entries of the source, which are not always exact repeats. Equal values may be shown once.

Legend:
Swiss3T3 cells = test: MTT cytotoxicity, Swiss3T3 mouse normal fibroblast; type: cell-based; settings: preliminary results
Procedure: Swiss3T3 cells are mouse normal fibroblast which were used in this experiment to compare with ES2 (human ovarian cancer) in Tig-R cytotoxicity determination.
MTT Assay. The procedure for MTT assay followed the method described by Carmichael et al. (1987) with modifications. The cells were seeded into a 96-well plate at for 24 hours before drug-treatment. The cells were then exposed to the drugs for 48, 72, or 96 hours. After the drug-treatment, MTT (0.5 mg/mL) was added to cultures and incubated for an hour. The formazan (product of the reduction of tetrazolium by viable cells) formed and was dissolved with DMSO and the O.D. at 490 nm, and was measured by an ELISA reader. The MTT level of the cells before drug-treatment was also measured (T0). The % cell-growth (%G) is calculated as: %G = (TD-T0 / TC-T0) x 100(1), where TC or TD represents O.D. readings of control or drug-treated cells. When T0 > TD, then the cytotoxicity (LC) expressed as % of the control is calculated as: %LC = (TD-T0 / T0) × 100(2).

[1] = test system: DR5 (TNFRSF10B) in U2OS cells; test: DR5 Western blot, U2OS cells; type: cell-based, human
[2] = test system: DR5 (TNFRSF10B) in ES2 cells; test: Induction of DR5 in ES2 cells, Western blot; type: cell-based, human
Procedure: 1). Cells and drug-treatment: ES2 cells (Ovarian cancer cells) were cultured in RPMI1640 medium with 10% FBS, antibiotics (Pen Strep) and L-Glutamine in a 37° C., 5% CO2 incubator. Cells in log-growth phase were treated with Tig-R (10 ug/ml), or DMSO (as control) for 2 days.
(§1) 2). Total cell protein extraction: Drug-treated cells were collected, pelleted with centrifugation. The cell pellet was extracted with SDS-Sample buffer (containing PMSF and protease inhibitors cocktail). About 0.1 gram cell pellet was extracted in 1 ml of extraction buffer. The cell extract was then incubated in boiling water bath for 6 minutes with occasionally vortexing. The protein extract was immediately frozen in -80° C. before used.
3). SDS gel electrophoresis: 10-20 ug of protein sample was loaded into each lane of a 10% SDS gel. Electrophoresis was conducted with 100 volt constant for 2 hours.
(§2) 4). Western Blot: Separated proteins from SDS gel were transferred to a nitrocellulose membrane, which was blocked with 5% non-fat dry milk. The membrane was then exposed to 1st antibody (anti-TNFRSF10B) over night, then washed. The membrane was then incubated in 2nd antibody (anti-mouse-AP conjugated) for an hour, then washed. The immuno-bands were developed with BCIP/NBT substrate.
5. Another SDS gel with same protein loading was stained with Coomassie Brilliant Blue (CBB) for protein staining.
A. Cells and drug-treatment: HepG2 cells (liver cancer cells), CAPAN cells, ES2 cells (Ovary cell) were cultured in DMEM medium with 10% FBS, antibiotics (Pen Strep) and L-Glutamine in a 37° C., 5% CO2 incubator. Cells in log-growth phase were treated with Tig-R (10 ug/ml), Tig-S (4 ug/ml) or DMSO (as control) for 2 days.
as §1, with “B.” for “2).”
C. SDS gel electrophoresis: 10-20 ug of protein sample was loaded into each lane of a 10% SDS gel. Electrophoresis was conducted with 100 volt constant for 2 hours.
as §2, with “D.” for “4).”
E. Another SDS gel with same sample loading was stained with Coomassie Brilliant Blue (CBB) for protein staining.
F. Determination of Western blot band intensity: The band-images of Western blot were captured with a digital camera and the intensity of bands was determined using “Image J” software.

[3] = test system: Human leukemia cells K562; test: Inhibition of human leukemia K562 cells, cell counting; type: cell-based
Procedure: Method: • 1. Cells: Human leukemia cells K562 in RPMI1640 medium. • 2. Drug: Tig-S (1000x stock solution in DMSO). • 3. Start cells concentration: […] (500000/ml). • 4. Cells were cultured with or without drug for total of four days. • 5. Cell number is doubled after 2 days of incubation. Fresh medium (equal volume, with or without drug) was then added to culture. • 6. Cells were counted every day.

[4] = test system: Human leukemia cells K562; test: Inhibition of cell cycling, K562, flow cytometry; type: cell-based; settings: K562, three days
Procedure: • 1. Method: Cells: Human leukemia cells K562 cultured in RPMI1640 medium. • 2. Drug: compound from present application or Tig-S (1000x stock solution in DMSO). • 3. Start cells concentration: 500000 /ml. • 4. Cells were cultured with drug (0 - 20 ug/ml) for total of three days. • 5. Cells were harvested by centrifugation (136xg, 6 minutes); fixed with 70% ethanol and kept in -20° C. before staining. • 6. Staining: Fixed cells were stained with Propidium iodide/RNase A/0.1% Triton X-100 in PBS. • 7. Flow Cytometry Analysis was performed in Baylor Core Facility with a LSRII instrument. • 8. Analysis: Single cell was gated and cell count - FL2-Area histogram were plotted. • 9. Cell distribution in different cell-cycle phases (G0/G1, S, G2/M) was analyzed.

[5] = U2OS cells, Tig-R, single experiments 1-2
[6] = ES2 cells, Tig-R, 2 days, single experiments 2-5

Row | Compound | IC50 in SW3T3 cells (Swiss3T3 cells) | DR5 band intensity, % of DMSO, Average (%) ([1]; U2OS cells, Tig-R, average of 2 experiments) | DR5 Western blot band intensity (Image J) [1, 5] | DR5 band intensity, % of DMSO [1, 5] | increase of DR5 over DMSO control cells ([1]; U2OS, Tig-R treatment) [%] | increase of DR5 over DMSO control cells ([2]; ES2, Tig-R 10 ug/ml, 2 days (Experiment 46)) [%] | increase of DR5 ([2]; ES2 cells, 10 ug/ml, 2 days (Experiment 42)) | DR5 band intensity, % of DMSO, Average (%) ([2]; ES2 cells, Tig-R, 2 days, average of 5 experiments) | DR5 Western blot band intensity (Image J) [2, 6] | DR5 band intensity, % of DMSO [2, 6] | No growth (IC100), K562 ([3]; beginning on day 2) [µg/mL] | IC50, Leukemia K562 cells growth ([3]; cell counting, up to four days) | concentration from which cells in G2/M phase decrease [4] [µg/mL] | effect on cell cycle [4]
1 | 24,28-O-Tigloyl-3β,16α, 21β, 22a, 24β, 28-hexahydroxyolean-12-ene [Tig-R] | above 20 ug/ml | 206 | 18269 and 16969 | 209% and 203% | 106 | 61 | at least 2 folds | 161 | 25103 and 17941 and 17133 and 19157 | 185% and 200% and 148% and 113% |  |  |  | 
2 | CC=C(C)C(=O)OCC1(C)C(O)CCC2(C)C1CCC1(C)C2CC=C2C3CC(C)(C)C(OC(=O)C(C)=CC)C(O)C3(CO)C(O)CC21C (centres unmarked) [Tig-S] |  |  |  |  |  |  |  |  |  |  | ≥ 2.5 | about 0.6 ug/ml | ≥ 0.6 | arresting cells in the S-phase
